Results reported in patent US20260199323A1, “LIGAND COMPOUNDS FOR E3 UBIQUITIN LIGASE, PROTEIN DEGRADERS DEVELOPED ON BASIS OF LIGAND COMPOUNDS, AND USES THEREOF” (GLUETACS THERAPEUTICS (SHANGHAI) CO., LTD., priority 2021, published 2026).
Read-outs that look alike come from different tables or passages of the source. Blank lines part the entries; values can stand above or below the compound they belong to.

How the values were obtained:
MDA-MB-231 = test: CCK-8 tumor cell proliferation, MDA-MB-231; assay type: cell-based, Human; design: IC50 for inhibiting the proliferation of tumor cells, MDA-MB-231: scale not given here; details: for IC50: Homo sapiens, MDA-MB-231, read-out: IC50 inhibiting proliferation of tumor cells, MDA-MB-231
Method: (§1) The tumor cells used herein were cultured in a cell culture medium listed in table 4 at 37° C. in an incubator with 5% CO2. Prior to experimentation, all cells used were correctly identified by STR profiling, and tested negative for mycoplasma through routine screenings.
(§2) IC50 values of the compounds of the present disclosure (including the compounds in Tables 1 and 3, and compounds of examples) were measured using the Meilun Cell Counting Kit-8 kit from Dalian Meilun Biotech Co., Ltd. Assay details are as follows: tumor cells were seeded in a 96-well plate at a density listed in Table 5. After 24 h, 100 μL of the inoculated cells were treated with 0.5 μL of the compounds of the present disclosure (including the compounds in Tables 1 and 3, and compounds of examples) at 10 different successively decreasing concentrations (starting at the highest concentration of 10 μM; 5-fold serial dilutions). After the cells were treated with the compounds of the present disclosure for a period of time, the cell viability detection reagent was added to the culture medium for cell viability assessment according to the instructions provided with the CCK-8 kit. […] The growth inhibition of the compounds of the present disclosure on cells was plotted by Prism Graphpad software, and the IC50 values of the compounds of the present disclosure were calculated therefrom.

MM.1S = test: CCK-8 tumor cell proliferation, MM.1S; assay type: cell-based
Method: as §1, §2

CAL-62 = test: CCK-8 tumor cell proliferation, CAL-62; assay type: cell-based, Human; details: Homo sapiens; Table 18, FAK inhibitor based; CAL-62; read-out: IC50 inhibiting proliferation of tumor cells, CAL-62
Method: as §1, §2

SR = test: CCK-8 tumor cell proliferation, SR; assay type: cell-based, Human; details: for IC50: Homo sapiens, SR, read-out: IC50 inhibiting proliferation of tumor cells, SR
Method: as §1, §2

Mino = test: CCK-8 tumor cell proliferation, Mino; assay type: cell-based, Human; details: for IC50: Homo sapiens, Table 18, FAK inhibitor based, Mino, read-out: IC50 inhibiting proliferation of tumor cells, Mino
Method: as §1, §2

SW620 = test: CCK-8 tumor cell proliferation, SW620; assay type: cell-based, Human; details: for IC50: Homo sapiens, SW-620, Table 18, FAK inhibitor based, SW620, read-out: IC50 inhibiting proliferation of tumor cells, SW620
Method: as §1, §2

PC-9 = test: CCK-8 tumor cell proliferation, PC-9; assay type: cell-based, Human; details: for IC50: Homo sapiens, PC-9, read-out: IC50 inhibiting proliferation of tumor cells, PC-9; for IC50 for inhibiting the proliferation of tumor cells, PC-9: Table 11, designed based on EGFR inhibitors, 96 h
Method: The tumor cells used herein were cultured in a cell culture medium listed in table 4 at 37° C. in an incubator with 5% CO2.
as §2, with “After” for “IC50 values of the compounds of the present disclosure (including the compounds in Tables 1 and 3, and compounds of examples) were measured using the Meilun Cell Counting Kit-8 kit from Dalian Meilun Biotech Co., Ltd. Assay details are as follows: tumor cells were seeded in a 96-well plate at a density listed in Table 5. After”

CCRF-CEM = test: CCK-8 tumor cell proliferation, CCRF-CEM; assay type: cell-based, Human; design: IC50 for inhibiting the proliferation of tumor cells, CCRF-CEM: scale not given here; details: 96 h
Method: as §1, §2

Structure (SMILES): CN(c1cccc(CNc2nc(Nc3ccc(C4CCN(Cc5ccc6c(c5)CN(C5CCC(=O)NC5=O)C6=O)CC4)cc3)ncc2C(F)(F)F)c1)S(C)(=O)=O (stereo not drawn) [GT-03742, N-(3-(((2-((4-(1-((2-(2,6-dioxopiperidin-3-yl)-1-oxoisoindolin-5-yl)methyl)piperidin-4-yl)phenyl)amino)-5-(trifluoromethyl)pyrimidin-4-yl)amino)methyl)phenyl)-N-methylmethanesulfonamide]
IC50 (MDA-MB-231; Table 18, FAK inhibitor based): 1000 to 5000 nM
IC50 (MM.1S; Homo sapiens, MM1.S, Table 18, FAK inhibitor based, MM.1S, read-out: IC50 inhibiting proliferation of tumor cells, MM.1S): 1000 to 5000 nM
IC50 (CAL-62): 1000 to 5000 nM

Structure (SMILES): CNC(=O)c1ccccc1Nc1cc(Nc2ccc(N3CCC(N(C)Cc4ccc5c(c4)C(=O)N(C4CCC(=O)NC4=O)C5=O)CC3)cc2OC)ncc1C(F)(F)F (stereo not drawn) [GT-03732, 2-((2-((4-(4-(((2-(2,6-dioxopiperidin-3-yl)-1,3-dioxoisoindolin-5-yl)methyl)(methyl)amino)piperidin-1-yl)-2-methoxyphenyl)amino)-5-(trifluoromethyl)pyridin-4-yl)amino)-N-methylbenzamide]
IC50 (SR; Table 18, FAK inhibitor based): 100 to 500 nM
IC50 (SW620): 1000 to 5000 nM
IC50 (PC-9; Table 18, FAK inhibitor based): 50 to 100 nM

Structure (SMILES): CNC(=O)c1ccc(Nc2ncc(C(F)(F)F)c(NCc3nccnc3N(C)S(C)(=O)=O)n2)cc1 [Defactinib, reference compound]
IC50 (Mino): 500 to 1000 nM
IC50 (SW620): 1000 to 5000 nM
IC50 (PC-9; Table 18, FAK inhibitor based): 1000 to 5000 nM

Structure (SMILES): CNC(=O)c1ccccc1Nc1cc(Nc2ccc(N3CCC(N(C)Cc4ccc5c(c4F)CN(C4CCC(=O)NC4=O)C5=O)CC3)cc2OC)ncc1C(F)(F)F (stereo not drawn) [GT-03728, 2-((2-((4-(4-(((2-(2,6-dioxopiperidin-3-yl)-4-fluoro-1-oxoisoindolin-5-yl)methyl)(methyl)amino)piperidin-1-yl)-2-methoxyphenyl)amino)-5-(trifluoromethyl)pyridin-4-yl)amino)-N-methylbenzamide]
IC50 (MDA-MB-231; Table 18, FAK inhibitor based): < 50 nM
IC50 (SR; Table 18, FAK inhibitor based): < 50 nM
IC50 (Mino): 1000 to 5000 nM
IC50 (SW620): 100 to 500 nM
IC50 (PC-9; Table 18, FAK inhibitor based): 1000 to 5000 nM
IC50 (CAL-62): 50 to 100 nM

Structure (SMILES): Cc1cc(Nc2ncc(Cl)c(Nc3ccccc3S(=O)(=O)C(C)C)n2)c(OC(C)C)cc1N1CCN(Cc2ccc3c(c2)CN(C2CCC(=O)NC2=O)C3=O)CC1 (stereo not drawn) [GT-03529, 3-(5-((4-(4-((5-chloro-4-((2-(isopropylsulfonyl)phenyl)amino)pyrimidin-2-yl)amino)-5-isopropoxy-2-methylphenyl)piperazin-1-yl)methyl)-1-oxoisoindolin-2-yl)piperidine-2,6-dione]
IC50 (MDA-MB-231; Table 15, ALK inhibitor based): 100 to 500 nM
IC50 (SR; Table 15, ALK inhibitor based): < 50 nM
IC50 (PC-9; Table 15, ALK inhibitor based): 100 to 500 nM

Structure (SMILES): Cc1nc(Nc2ncc(C(=O)Nc3c(C)cccc3Cl)s2)cc(N2CCC(N3CCN(Cc4ccc5c(c4)CN(C4CCC(=O)NC4=O)C5=O)CC3)CC2)n1 (stereo not drawn) [GT-03476, N-(2-chloro-6-methylphenyl)-2-((6-(4-(4-((2-(2,6-dioxopiperidin-3-yl)-1-oxoisoindolin-5-yl)methyl)piperazin-1-yl)piperidin-1-yl)-2-methylpyrimidin-4-yl)amino)thiazole-5-carboxamide]
IC50 for inhibiting the proliferation of tumor cells, Mino (Mino; Table 13, designed based on BCR-ABL inhibitors, 72 h): A+

Next, values leading:

IC50 (MDA-MB-231; Table 18, FAK inhibitor based): 500 to 1000 nM
IC50 (SR; Table 18, FAK inhibitor based): 500 to 1000 nM
IC50 (Mino): 500 to 1000 nM
IC50 (SW620): 1000 to 5000 nM
IC50 (PC-9; Table 18, FAK inhibitor based): 1000 to 5000 nM
IC50 (CAL-62): 500 to 1000 nM
Structure (SMILES): CN(c1nccnc1CNc1nc(Nc2ccc(N3CCN(Cc4ccc5c(c4)CN(C4CCC(=O)NC4=O)C5=O)CC3)cc2)ncc1C(F)(F)F)S(C)(=O)=O (stereo not drawn) [GT-03672, N-(3-(((2-((4-(4-((2-(2,6-dioxopiperidin-3-yl)-1-oxoisoindolin-5-yl)methyl)piperazin-1-yl)phenyl)amino)-5-(trifluoromethyl)pyrimidin-4-yl)amino)methyl)pyrazin-2-yl)-N-methylmethanesulfonamide]

IC50 for inhibiting the proliferation of tumor cells, PC-9 (PC-9): A+
Structure (SMILES): O=C1CCC(N2Cc3cc(CN4CCN(C5CCN(c6ccc(Nc7ncc8nc(Nc9ccccc9)n(C9CCCC9)c8n7)cc6)CC5)CC4)ccc3C2=O)C(=O)N1 (stereo not drawn) [GT-03808, 3-(5-((4-(1-(4-((9-cyclopentyl-8-(phenylamino)-9H-purin-2-yl)amino)phenyl)piperidin-4-yl)piperazin-1-yl)methyl)-1-oxoisoindolin-2-yl)piperidine-2,6-dione]

IC50 for inhibiting the proliferation of tumor cells, PC-9 (PC-9): A+
Structure (SMILES): O=C1CCC(N2Cc3cc(CN4CCN(c5ccc(Nc6ncc7nc(Nc8ccccc8)n(C8CCCC8)c7n6)cc5)CC4)c(F)cc3C2=O)C(=O)N1 (stereo not drawn) [GT-03736, 3-(5-((4-(4-((9-cyclopentyl-8-(phenylamino)-9H-purin-2-yl)amino)phenyl)piperazin-1-yl)methyl)-6-fluoro-1-oxoisoindolin-2-yl)piperidine-2,6-dione]

IC50 (MDA-MB-231; Table 18, FAK inhibitor based): < 50 nM
IC50 (Mino): 100 to 500 nM
IC50 (SW620): < 50 nM
IC50 (PC-9; Table 18, FAK inhibitor based): 1000 to 5000 nM
Structure (SMILES): CNC(=O)c1ccccc1Nc1cc(Nc2ccc(N3CCN(Cc4ccc5c(c4F)CN(C4CCC(=O)NC4=O)C5=O)CC3)cc2OC)ncc1C(F)(F)F (stereo not drawn) [GT-03712, 2-((2-((4-(4-((2-(2,6-dioxopiperidin-3-yl)-4-fluoro-1-oxoisoindolin-5-yl)methyl)piperazin-1-yl)-2-methoxyphenyl)amino)-5-(trifluoromethyl)pyridin-4-yl)amino)-N-methylbenzamide]

IC50 for inhibiting the proliferation of tumor cells, CCRF-CEM (CCRF-CEM; Table 11, designed based on EGFR inhibitors): A+
IC50 for inhibiting the proliferation of tumor cells, PC-9 (PC-9): A+
Structure (SMILES): CN(Cc1ccc2c(c1)CN(C1CCC(=O)NC1=O)C2=O)C1CCN(c2ccc(Nc3ncc4nc(Nc5ccccc5)n(C5CCCC5)c4n3)cc2)CC1 (stereo not drawn) [GT-03685, 3-(5-(((1-(4-((9-cyclopentyl-8-(phenylamino)-9H-purin-2-yl)amino)phenyl)piperidin-4-yl)(methyl)amino)methyl)-1-oxoisoindolin-2-yl)piperidine-2,6-dione]

IC50 for inhibiting the proliferation of tumor cells, CCRF-CEM (CCRF-CEM; Table 14, designed based on CDK4/6 inhibitors): A+
IC50 for inhibiting the proliferation of tumor cells, SR (SR; Table 14, designed based on CDK4/6 inhibitors, 72 h): A+
IC50 for inhibiting the proliferation of tumor cells, SW620 (SW620; Table 14, designed based on CDK4/6 inhibitors, 96 h): A+
Structure (SMILES): Cc1nc2c(F)cc(-c3nc(Nc4ccc(N5CCC(N6CCN(Cc7ccc8c(c7)CN(C7CCC(=O)NC7=O)C8=O)CC6)CC5)cn4)ncc3F)cc2n1C(C)C (stereo not drawn) [GT-03719, 3-(5-((4-(1-(6-((5-fluoro-4-(4-fluoro-1-isopropyl-2-methyl-1H-benzo[d]imidazol-6-yl)pyrimidin-2-yl)amino)pyridin-3-yl)piperidin-4-yl)piperazin-1-yl)methyl)-1-oxoisoindolin-2-yl)piperidine-2,6-dione]

IC50 for inhibiting the proliferation of tumor cells, CCRF-CEM (CCRF-CEM; Table 7, designed based on BTK inhibitors): A+
IC50 for inhibiting the proliferation of tumor cells, MDA-MB-231 (MDA-MB-231; Table 7, designed based on BTK inhibitors, 96 h): A+
IC50 for inhibiting the proliferation of tumor cells, MM.1S (MM.1S; Table 7, designed based on BTK inhibitors, 72 h): A+
Structure (SMILES): Nc1ncnc2c1c(-c1ccc(Oc3ccccc3)cc1)nn2C1CCN(Cc2cc3c(cc2F)C(=O)N(C2CCC(=O)NC2=O)C3)CC1 (stereo not drawn) [GT-03605, 3-(5-((4-(4-amino-3-(4-phenoxyphenyl)-1H-pyrazolo[3,4-d]pyrimidin-1-yl)piperidin-1-yl)methyl)-6-fluoro-1-oxoisoindolin-2-yl)piperidine-2,6-dione]

IC50 (MDA-MB-231; Table 15, ALK inhibitor based): 100 to 500 nM
IC50 (SR; Table 15, ALK inhibitor based): < 50 nM
IC50 (PC-9; Table 15, ALK inhibitor based): 1000 to 5000 nM
Structure (SMILES): Cc1cc(Nc2ncc(Cl)c(Nc3ccccc3S(=O)(=O)C(C)C)n2)c(OC(C)C)cc1N1CCC(N2CCN(Cc3ccc4c(c3)CN(C3CCC(=O)NC3=O)C4=O)CC2)CC1 (stereo not drawn) [GT-03531, 3-(5-((4-(1-(4-((5-chloro-4-((2-(isopropylsulfonyl)phenyl)amino)pyrimidin-2-yl)amino)-5-isopropoxy-2-methylphenyl)piperidin-4-yl)piperazin-1-yl)methyl)-1-oxoisoindolin-2-yl)piperidine-2,6-dione]
